Test results as given in the kinase profiling compilation of Christmann-Franck et al. (2016).

Key:
Experiment in all cases: split-luciferase competition binding
RPS6KA6 KD1 (human) = RPS6KA6 KD1 (human) (UniProt Q9UK32); settings: compound 10.0 µM
RPS6KA1 KD1 (human) = RPS6KA1 KD1 (human) (UniProt Q15418); settings: compound 10.0 µM
PRKACB (human) = PRKACB (human) (UniProt P22694); settings: compound 10.0 µM
STK32B (human) = STK32B (human) (UniProt Q9NY57); settings: compound 10.0 µM
RPS6KA5 KD1 (human) = RPS6KA5 KD1 (human) (UniProt O75582); settings: compound 10.0 µM
PRKCH (human) = PRKCH (human) (UniProt P24723); settings: compound 10.0 µM
Chain of PRKCH (human) (P24723 whole entry, looked up): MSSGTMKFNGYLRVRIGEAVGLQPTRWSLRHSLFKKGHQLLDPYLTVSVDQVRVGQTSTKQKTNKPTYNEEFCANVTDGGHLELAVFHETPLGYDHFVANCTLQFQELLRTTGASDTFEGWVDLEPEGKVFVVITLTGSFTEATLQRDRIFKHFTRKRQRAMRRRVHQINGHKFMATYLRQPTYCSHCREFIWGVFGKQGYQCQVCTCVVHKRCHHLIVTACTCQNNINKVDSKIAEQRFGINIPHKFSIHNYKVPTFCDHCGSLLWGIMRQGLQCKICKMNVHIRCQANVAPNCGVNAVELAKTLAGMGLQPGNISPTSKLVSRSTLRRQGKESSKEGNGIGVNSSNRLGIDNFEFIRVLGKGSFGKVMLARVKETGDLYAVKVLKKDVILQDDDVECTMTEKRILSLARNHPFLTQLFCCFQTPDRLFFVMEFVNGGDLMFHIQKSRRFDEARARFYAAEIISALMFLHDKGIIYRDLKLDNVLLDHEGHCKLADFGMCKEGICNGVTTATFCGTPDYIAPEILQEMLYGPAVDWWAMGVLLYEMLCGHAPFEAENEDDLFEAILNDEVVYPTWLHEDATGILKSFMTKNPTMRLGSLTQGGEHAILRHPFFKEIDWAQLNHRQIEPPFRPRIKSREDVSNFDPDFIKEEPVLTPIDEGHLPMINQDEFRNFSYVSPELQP

PRKX (human) = PRKX (human) (UniProt P51817); settings: compound 10.0 µM
Chain of PRKX (human) (P51817 whole entry, looked up): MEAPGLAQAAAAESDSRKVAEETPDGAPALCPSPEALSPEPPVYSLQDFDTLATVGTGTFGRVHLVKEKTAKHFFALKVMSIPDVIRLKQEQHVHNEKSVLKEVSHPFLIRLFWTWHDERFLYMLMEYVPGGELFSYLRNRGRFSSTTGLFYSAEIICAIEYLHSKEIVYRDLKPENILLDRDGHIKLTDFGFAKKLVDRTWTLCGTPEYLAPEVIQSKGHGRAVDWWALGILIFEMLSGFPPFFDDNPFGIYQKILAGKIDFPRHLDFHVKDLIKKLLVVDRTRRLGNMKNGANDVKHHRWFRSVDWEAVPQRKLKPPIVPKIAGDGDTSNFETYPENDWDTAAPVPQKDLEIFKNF

AKT1 (human) = AKT1 (human) (UniProt P31749); settings: compound 10.0 µM
PRKCI (human) = PRKCI (human) (UniProt P41743); settings: compound 10.0 µM
RPS6KA2 KD1 (human) = RPS6KA2 KD1 (human) (UniProt Q15349); settings: compound 10.0 µM
SGK3 (human) = SGK3 (human) (UniProt Q96BR1); settings: compound 10.0 µM
Chain of SGK3 (human) (Q96BR1 whole entry, looked up): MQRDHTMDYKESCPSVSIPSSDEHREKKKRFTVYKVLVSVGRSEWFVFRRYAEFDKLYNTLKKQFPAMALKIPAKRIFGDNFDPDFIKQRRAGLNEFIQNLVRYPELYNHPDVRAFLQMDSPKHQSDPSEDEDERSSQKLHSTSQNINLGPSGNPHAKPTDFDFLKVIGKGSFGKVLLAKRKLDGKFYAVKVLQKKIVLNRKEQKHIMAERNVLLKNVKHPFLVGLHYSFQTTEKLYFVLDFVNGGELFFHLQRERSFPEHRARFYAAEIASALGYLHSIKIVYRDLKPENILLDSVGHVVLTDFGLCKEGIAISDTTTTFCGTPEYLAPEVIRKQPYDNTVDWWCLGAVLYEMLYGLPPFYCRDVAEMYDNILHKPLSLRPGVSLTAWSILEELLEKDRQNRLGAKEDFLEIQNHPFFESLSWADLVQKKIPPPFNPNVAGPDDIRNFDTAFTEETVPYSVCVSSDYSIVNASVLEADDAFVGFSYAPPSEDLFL

PRKCG (human) = PRKCG (human) (UniProt P05129); settings: compound 10.0 µM
PRKCD (human) = PRKCD (human) (UniProt Q05655); settings: compound 10.0 µM
Chain of PRKCD (human) (Q05655 whole entry, looked up): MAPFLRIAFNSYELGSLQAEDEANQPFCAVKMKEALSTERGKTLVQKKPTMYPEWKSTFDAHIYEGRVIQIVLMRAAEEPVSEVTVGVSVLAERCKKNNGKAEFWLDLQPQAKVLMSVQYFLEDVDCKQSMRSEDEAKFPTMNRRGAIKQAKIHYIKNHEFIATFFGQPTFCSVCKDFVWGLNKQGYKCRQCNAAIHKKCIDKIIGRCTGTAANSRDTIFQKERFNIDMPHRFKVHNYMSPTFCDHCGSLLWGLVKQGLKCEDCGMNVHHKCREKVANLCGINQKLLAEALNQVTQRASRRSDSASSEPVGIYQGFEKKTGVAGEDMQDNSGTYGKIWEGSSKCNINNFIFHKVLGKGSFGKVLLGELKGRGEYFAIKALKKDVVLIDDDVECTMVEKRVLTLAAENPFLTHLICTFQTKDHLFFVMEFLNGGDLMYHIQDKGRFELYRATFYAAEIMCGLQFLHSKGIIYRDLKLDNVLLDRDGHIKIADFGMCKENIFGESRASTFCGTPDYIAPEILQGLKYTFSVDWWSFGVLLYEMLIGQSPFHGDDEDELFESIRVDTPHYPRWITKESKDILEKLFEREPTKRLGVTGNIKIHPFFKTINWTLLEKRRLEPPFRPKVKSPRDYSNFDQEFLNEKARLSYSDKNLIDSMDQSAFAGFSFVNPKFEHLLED

PDPK1 (human) = PDPK1 (human) (UniProt O15530); settings: compound 10.0 µM
PRKACA (mouse) = settings: compound 10.0 µM; accession and sequence are those of the human protein
AKT3 (human) = AKT3 (human) (UniProt Q9Y243); settings: compound 10.0 µM
RPS6KA4 KD1 (human) = RPS6KA4 KD1 (human) (UniProt O75676); settings: compound 10.0 µM
Chain of RPS6KA4 KD1 (human) (O75676 whole entry, looked up): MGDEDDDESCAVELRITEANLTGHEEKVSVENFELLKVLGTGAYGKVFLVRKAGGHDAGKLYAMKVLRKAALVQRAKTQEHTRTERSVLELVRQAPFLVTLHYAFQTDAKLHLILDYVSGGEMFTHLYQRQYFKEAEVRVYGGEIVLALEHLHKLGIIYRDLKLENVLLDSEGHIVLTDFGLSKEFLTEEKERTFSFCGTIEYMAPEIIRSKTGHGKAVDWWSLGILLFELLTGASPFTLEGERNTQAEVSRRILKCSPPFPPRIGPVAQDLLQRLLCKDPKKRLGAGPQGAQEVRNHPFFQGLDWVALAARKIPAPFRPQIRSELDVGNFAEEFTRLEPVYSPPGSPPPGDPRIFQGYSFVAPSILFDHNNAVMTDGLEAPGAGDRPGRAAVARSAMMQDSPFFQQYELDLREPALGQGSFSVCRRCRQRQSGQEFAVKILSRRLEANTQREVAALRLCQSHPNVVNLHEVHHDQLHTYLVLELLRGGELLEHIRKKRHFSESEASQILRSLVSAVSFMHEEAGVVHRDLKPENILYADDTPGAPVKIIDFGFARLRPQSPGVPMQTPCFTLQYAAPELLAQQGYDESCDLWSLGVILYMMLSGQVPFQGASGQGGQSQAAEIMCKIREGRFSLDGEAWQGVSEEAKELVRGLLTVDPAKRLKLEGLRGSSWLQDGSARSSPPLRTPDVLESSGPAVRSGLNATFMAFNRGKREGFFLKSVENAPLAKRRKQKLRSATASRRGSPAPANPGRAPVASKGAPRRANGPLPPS

PRKCQ (human) = PRKCQ (human) (UniProt Q04759); settings: compound 10.0 µM
DMPK (human) = DMPK (human) (UniProt Q09013); settings: compound 10.0 µM
AKT2 (human) = AKT2 (human) (UniProt P31751); settings: compound 10.0 µM
AURKC (human) = AURKC (human) (UniProt Q9UQB9); settings: compound 10.0 µM
AURKB (human) = AURKB (human) (UniProt Q96GD4); settings: compound 10.0 µM
SGK2 (human) = SGK2 (human) (UniProt Q9HBY8); settings: compound 10.0 µM
RPS6KA3 KD1 (human) = RPS6KA3 KD1 (human) (UniProt P51812); settings: compound 10.0 µM
PRKCE (human) = PRKCE (human) (UniProt Q02156); settings: compound 10.0 µM
Chain of PRKCE (human) (Q02156 whole entry, looked up): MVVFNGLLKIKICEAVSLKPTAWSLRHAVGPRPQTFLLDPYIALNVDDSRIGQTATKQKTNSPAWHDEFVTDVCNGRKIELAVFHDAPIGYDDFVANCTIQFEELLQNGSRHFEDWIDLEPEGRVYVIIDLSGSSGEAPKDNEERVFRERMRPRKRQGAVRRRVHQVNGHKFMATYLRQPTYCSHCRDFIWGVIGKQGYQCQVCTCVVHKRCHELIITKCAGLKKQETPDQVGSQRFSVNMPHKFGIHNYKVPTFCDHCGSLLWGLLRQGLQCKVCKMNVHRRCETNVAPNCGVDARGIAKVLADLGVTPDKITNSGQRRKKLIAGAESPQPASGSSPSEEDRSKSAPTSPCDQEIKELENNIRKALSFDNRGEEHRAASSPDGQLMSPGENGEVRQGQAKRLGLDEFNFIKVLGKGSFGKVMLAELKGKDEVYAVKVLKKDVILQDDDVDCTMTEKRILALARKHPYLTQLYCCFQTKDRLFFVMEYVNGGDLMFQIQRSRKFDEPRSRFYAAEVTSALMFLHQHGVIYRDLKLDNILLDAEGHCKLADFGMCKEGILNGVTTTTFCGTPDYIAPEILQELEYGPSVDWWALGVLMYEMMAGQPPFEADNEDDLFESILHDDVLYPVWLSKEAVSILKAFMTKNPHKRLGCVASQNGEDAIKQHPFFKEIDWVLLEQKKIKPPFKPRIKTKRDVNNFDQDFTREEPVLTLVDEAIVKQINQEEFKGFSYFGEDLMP

PKN1 (human) = PKN1 (human) (UniProt Q16512); settings: compound 10.0 µM
AURKA (human) = AURKA (human) (UniProt O14965); settings: compound 10.0 µM
Chain of AURKA (human) (O14965 whole entry, looked up): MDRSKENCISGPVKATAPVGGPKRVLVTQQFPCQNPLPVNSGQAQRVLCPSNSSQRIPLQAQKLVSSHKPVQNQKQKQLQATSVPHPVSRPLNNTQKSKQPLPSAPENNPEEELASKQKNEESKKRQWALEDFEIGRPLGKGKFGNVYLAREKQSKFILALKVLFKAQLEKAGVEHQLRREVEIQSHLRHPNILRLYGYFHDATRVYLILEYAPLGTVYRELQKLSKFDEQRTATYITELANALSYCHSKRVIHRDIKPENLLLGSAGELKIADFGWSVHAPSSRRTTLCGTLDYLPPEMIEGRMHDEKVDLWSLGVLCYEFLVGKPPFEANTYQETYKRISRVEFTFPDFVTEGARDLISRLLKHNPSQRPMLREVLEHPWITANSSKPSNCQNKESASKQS

SMILES | inhibition (RPS6KA6 KD1 (human)) [%] | inhibition (RPS6KA1 KD1 (human)) [%] | inhibition (PRKACB (human)) [%] | inhibition (STK32B (human)) [%] | inhibition (RPS6KA5 KD1 (human)) [%] | inhibition (PRKCH (human)) [%] | inhibition (PRKX (human)) [%] | inhibition (AKT1 (human)) [%] | inhibition (PRKCI (human)) [%] | inhibition (RPS6KA2 KD1 (human)) [%] | inhibition (SGK3 (human)) [%] | inhibition (PRKCG (human)) [%] | inhibition (PRKCD (human)) [%] | inhibition (PDPK1 (human)) [%] | inhibition (PRKACA (mouse)) [%] | inhibition (AKT3 (human)) [%] | inhibition (RPS6KA4 KD1 (human)) [%] | inhibition (PRKCQ (human)) [%] | inhibition (DMPK (human)) [%] | inhibition (AKT2 (human)) [%] | other results
Cc1[nH]c(/C=C2\C(=O)Nc3ccc(S(=O)(=O)Cc4c(Cl)cccc4Cl)cc32)c(C)c1C(=O)N1CCC[C@@H]1CN1CCCC1 | 25 | 32 | 13 | 23 | 22 | 12 | 7 | 8 | 7 | 14 | 0 | 12 | 0 | 7 | 1 | 0 | 12 | 0 | 9 | 0 | inhibition (AURKC (human)): 39%; inhibition (AURKB (human)): 33%; inhibition (SGK2 (human)): 2%; inhibition (RPS6KA3 KD1 (human)): 13%; inhibition (PRKCE (human)): 7%; inhibition (PKN1 (human)): 0%; inhibition (AURKA (human)): 19%
Cn1cc(C2=C(c3ccc(Cl)cc3Cl)C(=O)NC2=O)c2ccccc21 | 0 | 21 | 8 | 0 | 0 | 0 | 1 | 3 | 11 | 1 | 0 | 2 | 5 | 0 | 5 | 0 | 0 | 3 | 8 | 0 | inhibition (AURKC (human)): 0%; inhibition (AURKB (human)): 0%; inhibition (SGK2 (human)): 0%; inhibition (RPS6KA3 KD1 (human)): 0%; inhibition (PRKCE (human)): 3%; inhibition (PKN1 (human)): 0%; inhibition (AURKA (human)): 3%
C=CC(=O)c1ccc2ccccc2c1 | 0 | 0 | 0 | 0 | 0 | 0 | 0 | 0 | 0 | 0 | 0 | 0 | 0 | 0 | 0 | 0 | 0 | 0 | 0 | 0 | inhibition (AURKC (human)): 0%; inhibition (AURKB (human)): 0%; inhibition (SGK2 (human)): 0%; inhibition (RPS6KA3 KD1 (human)): 0%; inhibition (PRKCE (human)): 0%; inhibition (PKN1 (human)): 2%; inhibition (AURKA (human)): 0%
O=C1NC(=O)c2c1c1c3ccccc3n3c1c1c2c2ccccc2n1C1CCC3O1 | 80 | 81 | 71 | 12 | 73 | 78 | 79 | 78 | 28 | 81 | 85 | 45 | 58 | 29 | 65 | 45 | 77 | 82 | 37 | 56 | inhibition (AURKC (human)): 45%; inhibition (AURKB (human)): 60%; inhibition (SGK2 (human)): 87%; inhibition (RPS6KA3 KD1 (human)): 77%; inhibition (PRKCE (human)): 59%; inhibition (PKN1 (human)): 10%; inhibition (AURKA (human)): 12%
Brc1c(Br)c(Br)c2[nH]nnc2c1Br | 6 | 0 | 1 | 4 | 0 | 0 | 2 | 0 | 0 | 4 | 0 | 0 | 0 | 0 | 0 | 0 | 0 | 0 | 0 | 0 | inhibition (AURKC (human)): 1%; inhibition (AURKB (human)): 2%; inhibition (SGK2 (human)): 0%; inhibition (RPS6KA3 KD1 (human)): 3%; inhibition (PRKCE (human)): 0%; inhibition (PKN1 (human)): 0%; inhibition (AURKA (human)): 6%
CN1CC[C@H](c2c(O)cc(O)c3c(=O)cc(-c4ccccc4Cl)oc23)[C@H](O)C1 | 2 | 19 | 0 | 11 | 16 | 0 | 8 | 1 | 0 | 2 | 0 | 0 | 15 | 0 | 5 | 0 | 23 | 35 | 6 | 0 | inhibition (AURKC (human)): 28%; inhibition (AURKB (human)): 0%; inhibition (SGK2 (human)): 0%; inhibition (RPS6KA3 KD1 (human)): 8%; inhibition (PRKCE (human)): 0%; inhibition (PKN1 (human)): 1%; inhibition (AURKA (human)): 12%
